Data published in patent publication US9403834B2, “Pyrrolotriazines as potassium ion channel inhibitors” (BRISTOL-MYERS SQUIBB COMPANY, priority 2013, dated 2016).

Target: T1, human Kv 1.5 (Homo sapiens, UniProt P22460)
T1 construct: expressed in transfected cells; host or cells: mammalian L-929 cells (mouse fibroblasts)
Test: block of IKur current in patch clamped L-929 cells expressing human Kv1.5
Type: cell-based
Conditions: patch clamped mammalian L-929 cells stably expressing IKur protein; for inhibition at 0.3 µM: L929, 0.3 μM, read-out: Percentage inhibition of Kv1.5 in L-929 cells at 0.3 μM
From the text: Assays to determine the degree of activity of a compound as an IKur inhibitor are well known in the art and are described in references such as J. Gen. Physiol., 101(4):513-543 (April 1993), and Br. J. Pharmacol., 115(2):267-274 (May 1995).
1. Synders, D. J. et al., “A rapidly activating and slowly inactivating potassium channel cloned from human heart: functional analysis after stable mammalian cell culture expression”, J. Gen. Physiol., 101:513-543 (1993).
2. Zhou, Z. et al., “Block of HERG potassium channels by the antihistamine astemizole and its metabolites desmethylastemizole and norastemizole”, J. Cardiovasc. Electrophysiol., 10(6):836-843 (1999).

T1 sequence (P22460 whole entry): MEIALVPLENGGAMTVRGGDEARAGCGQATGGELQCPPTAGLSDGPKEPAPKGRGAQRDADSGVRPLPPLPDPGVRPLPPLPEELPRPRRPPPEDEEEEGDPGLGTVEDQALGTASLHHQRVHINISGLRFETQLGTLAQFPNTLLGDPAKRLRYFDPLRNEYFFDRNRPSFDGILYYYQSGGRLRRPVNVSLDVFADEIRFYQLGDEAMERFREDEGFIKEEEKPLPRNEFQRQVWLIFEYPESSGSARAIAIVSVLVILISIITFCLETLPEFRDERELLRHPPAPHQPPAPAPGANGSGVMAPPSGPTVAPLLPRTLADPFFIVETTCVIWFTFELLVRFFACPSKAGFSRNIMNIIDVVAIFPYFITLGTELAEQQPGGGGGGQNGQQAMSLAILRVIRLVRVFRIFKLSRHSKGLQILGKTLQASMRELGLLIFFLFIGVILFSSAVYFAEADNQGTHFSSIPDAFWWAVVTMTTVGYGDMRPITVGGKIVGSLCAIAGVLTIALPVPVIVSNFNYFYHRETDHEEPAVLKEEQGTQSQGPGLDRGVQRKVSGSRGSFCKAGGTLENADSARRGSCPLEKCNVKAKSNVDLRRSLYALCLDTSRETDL

Row | Percentage inhibition of Kv1.5 in L-929 cells at 0.3 μM (0.3 μM) | inhibition at 0.3 µM | Structure (SMILES)
1 | 88% | – | CC(Nc1nnc(-c2cncc(S(N)(=O)=O)c2)n2ccc(-c3ccccc3)c12)c1ccccn1 (single isomer, unassigned) [Example 5, 5-(8-phenyl-1-(1-(pyridin-2-yl)ethylamino)pyrrolo[1,2-d][1,2,4]triazin-4-yl)pyridine-3-sulfonamide]
2 | – | 92% | CC(Nc1nnc(-c2cncc(S(N)(=O)=O)c2)n2ccc(-c3ccccc3)c12)c1ccccn1 (single isomer, unassigned) [Example 6, 5-(8-phenyl-1-(1-(pyridin-2-yl)ethylamino)pyrrolo[1,2-d][1,2,4]triazin-4-yl)pyridine-3-sulfonamide]
3 | – | 89% | NS(=O)(=O)c1cncc(-c2nnc(NCc3ccccc3)c3c(-c4ccccc4)ccn23)c1 [Example 1, 5-(1-(Benzylamino)-8-phenylpyrrolo[1,2-d][1,2,4]triazin-4-yl)pyridine-3-sulfonamide]
4 | – | 91% | NS(=O)(=O)c1cncc(-c2nnc(Nc3cccc(F)c3)c3c(-c4ccccc4)ccn23)c1 [Example 2, 5-(1-(3-Fluorophenylamino)-8-phenylpyrrolo[1,2-d][1,2,4]triazin-4-yl)pyridine-3-sulfonamide]
5 | – | 95% | NS(=O)(=O)c1cc(-c2nnc(NCc3ccccn3)c3c(-c4ccccc4)ccn23)cnc1C(F)F [Example 3, 2-(Difluoromethyl)-5-(8-phenyl-1-(pyridin-2-ylmethylamino)pyrrolo[1,2-d][1,2,4]triazin-4-yl)pyridine-3-sulfonamide]
6 | – | 86% | NS(=O)(=O)c1cncc(-c2nnc(NCc3ccccn3)c3c(-c4ccccc4)ccn23)c1 [Example 4, 5-(8-phenyl-1-(pyridin-2-ylmethylamino)pyrrolo[1,2-d][1,2,4]triazin-4-yl)pyridine-3-sulfonamide]
7 | – | 98% | NS(=O)(=O)c1cncc(-c2nnc(NCc3ncccc3F)c3c(-c4ccccc4)ccn23)c1 [Example 7, 5-(1-(((3-fluoropyridin-2-yl)methyl)amino)-8-phenylpyrrolo[1,2-d][1,2,4]triazin-4-yl)pyridine-3-sulfonamide]
8 | – | 93% | NS(=O)(=O)c1cncc(-c2nnc(NCc3ccccc3F)c3c(-c4ccccc4)ccn23)c1 [Example 8, 5-(1-(2-fluorobenzylamino)-8-phenylpyrrolo[1,2-d][1,2,4]triazin-4-yl)pyridine-3-sulfonamide]
9 | – | 92% | NS(=O)(=O)c1cncc(-c2nnc(NCc3c(F)cccc3F)c3c(-c4ccccc4)ccn23)c1 [Example 9, 5-(1-(2,6-difluorobenzylamino)-8-phenylpyrrolo[1,2-d][1,2,4]triazin-4-yl)pyridine-3-sulfonamide]
